Source: paper PMC7038240 (Antimicrobial Agents and Chemotherapy, 2020)
Like-named read-outs stand apart in the source and are kept apart here.

Assays:
Format in all cases: cell-based
K. pneumoniae = experiment: microbe, parasite or virus in culture; conditions: Klebsiella pneumoniae, read-out: MIC
Description: (§1) The antibacterial activity of cefepime-taniborbactam was compared to that of ceftazidime-avibactam, ceftolozane-tazobactam, and cefepime-tazobactam against a diverse panel of Enterobacterales and P. aeruginosa clinical isolates with defined β-lactamase subtypes (see Table S1 in the supplemental material). IMP-producing strains were excluded, as none of the BLI-protected cephalosporins inhibited IMP sufficiently to provide a clinically relevant rescue of the partner β-lactam, a characteristic also shared by approved BLI-protected carbapenems (meropenem-vaborbactam and imipenem-relebactam). […] The antibacterial activity of the cephalosporins alone was included to ascertain the level of potentiation by the partnered BLI. BLIs were tested at a fixed concentration of 4 μg/ml in all combinations except cefepime-tazobactam, where tazobactam was fixed at a concentration of 8 μg/ml ([38]). The collection comprised 143 clinical isolates collected from 2005 and 2018.
(§2) The in vitro antibacterial activity of the β-lactams alone or in combination with the BLIs was determined in cation-adjusted Mueller-Hinton broth (CAMHB) microdilution assays according to CLSI recommendations ([51]). […]. The inocula for the broth microdilution assays were prepared by the broth culture method ([51]). […]

P. aeruginosa = experiment: microbe, parasite or virus in culture
Description: as §1, §2

S. marcescens = experiment: microbe, parasite or virus in culture; conditions: Serratia marcescens
Description: as §1, §2

S. paratyphi = experiment: microbe, parasite or virus in culture; conditions: Salmonella enterica, strain 527, AmpC/TEM-1
Description: as §1, §2

S. typhi = experiment: microbe, parasite or virus in culture; conditions: Salmonella enterica, strain 26A, AmpC/TEM-1
Description: as §1, §2

M. morgannii = experiment: organism not typed; conditions: strain 769909; OXA-48
Description: as §1, §2

CC(C)(O/N=C(\C(=O)N[C@@H]1C(=O)N2C(C(=O)[O-])=C(C[n+]3ccccc3)CS[C@H]12)c1csc(N)n1)C(=O)O [CAZ]
MIC (K. pneumoniae; strain CDC-0145, NDM): ≥ 256 µg/mL | MIC (K. pneumoniae; strain CDC-0148, NDM): ≥ 256 µg/mL | MIC (K. pneumoniae; strain CDC-0152, NDM): ≥ 256 µg/mL | MIC (K. pneumoniae; strain DOV, OXA-48): 64 µg/mL | MIC (K. pneumoniae; strain ESBL8 #1, TEM-1/SHV-12): ≥ 256 µg/mL | MIC (K. pneumoniae; strain ESBL 10, SHV-12/TEM-1): 128 µg/mL | MIC (K. pneumoniae; strain KIRK, OXA-162): 128 µg/mL | MIC (K. pneumoniae; strain SI-C05, OXA-48): 64 µg/mL | MIC (K. pneumoniae; strain SI-F100, SHV-5/TEM-1/CMY-2): 32 µg/mL | MIC (P. aeruginosa): 64 µg/mL | MIC (P. aeruginosa; Pseudomonas aeruginosa, ATCC27853, strain ATCC 27853, W.T., read-out: MIC): 2 µg/mL | MIC (P. aeruginosa; Pseudomonas aeruginosa, strain 10.257, PDC-50, read-out: MIC): ≥ 256 µg/mL | MIC (P. aeruginosa; Pseudomonas aeruginosa, strain 11.516, PDC-79, read-out: MIC): 128 µg/mL | MIC (P. aeruginosa; Pseudomonas aeruginosa, strain 11.698, PDC-87, read-out: MIC): ≥ 256 µg/mL | MIC (P. aeruginosa; Pseudomonas aeruginosa, strain 11.813, PDC-91, read-out: MIC): ≥ 256 µg/mL | MIC (P. aeruginosa; Pseudomonas aeruginosa, strain 13.1716, PDC-74, read-out: MIC): ≥ 256 µg/mL | MIC (P. aeruginosa; Pseudomonas aeruginosa, strain 13.1717, PDC-74, read-out: MIC): ≥ 256 µg/mL | MIC (P. aeruginosa; Pseudomonas aeruginosa, strain 13.1737, PDC-80, read-out: MIC): 128 µg/mL | MIC (P. aeruginosa; Pseudomonas aeruginosa, strain 13.1755, PDC-86, read-out: MIC): ≥ 256 µg/mL | MIC (P. aeruginosa; Pseudomonas aeruginosa, strain 13.1760, PDC-77, read-out: MIC): ≥ 256 µg/mL | MIC (P. aeruginosa; Pseudomonas aeruginosa, strain 13.1775, PDC-87, read-out: MIC): ≥ 256 µg/mL | MIC (P. aeruginosa; Pseudomonas aeruginosa, strain 247.3D, VIM-2, read-out: MIC): ≥ 256 µg/mL | MIC (P. aeruginosa; Pseudomonas aeruginosa, strain 1129, PDC, read-out: MIC): 4 µg/mL | MIC (P. aeruginosa; Pseudomonas aeruginosa, strain 3615, PDC/TEM-1, read-out: MIC): 32 µg/mL | MIC (P. aeruginosa; Pseudomonas aeruginosa, strain 5671, VIM-1, read-out: MIC): 128 µg/mL | MIC (P. aeruginosa; Pseudomonas aeruginosa, strain 8273, PDC/TEM-1, read-out: MIC): 16 µg/mL | MIC (P. aeruginosa; Pseudomonas aeruginosa, strain 164951, W.T., read-out: MIC): 2 µg/mL | MIC (P. aeruginosa; Pseudomonas aeruginosa, strain 377860, W.T., read-out: MIC): 4 µg/mL | MIC (P. aeruginosa; Pseudomonas aeruginosa, strain 384743, PDC/TEM-1, read-out: MIC): 16 µg/mL | MIC (P. aeruginosa; Pseudomonas aeruginosa, strain 1071703, GES-6, read-out: MIC): 64 µg/mL | MIC (P. aeruginosa; Pseudomonas aeruginosa, strain 1113755, GES-5, read-out: MIC): ≥ 256 µg/mL | MIC (P. aeruginosa; Pseudomonas aeruginosa, strain 1138223, GES-19, read-out: MIC): ≥ 256 µg/mL | MIC (P. aeruginosa; Pseudomonas aeruginosa, strain 1138337, GES-19, read-out: MIC): ≥ 256 µg/mL | MIC (P. aeruginosa; Pseudomonas aeruginosa, strain 1258509, GES-6, read-out: MIC): 64 µg/mL | MIC (P. aeruginosa; Pseudomonas aeruginosa, strain 1275655, GES-20, read-out: MIC): ≥ 256 µg/mL | MIC (P. aeruginosa; Pseudomonas aeruginosa, strain 1300089, GES-19, read-out: MIC): ≥ 256 µg/mL | MIC (P. aeruginosa; Pseudomonas aeruginosa, strain PA2, W.T., read-out: MIC): 4 µg/mL | MIC (P. aeruginosa; Pseudomonas aeruginosa, strain PAA1-9G1, GES-5, read-out: MIC): ≥ 256 µg/mL | MIC (P. aeruginosa; Pseudomonas aeruginosa, strain PAA1-9G2, GES-5, read-out: MIC): ≥ 256 µg/mL | MIC (P. aeruginosa; Pseudomonas aeruginosa, strain PS-12, VIM-2, read-out: MIC): 64 µg/mL | MIC (P. aeruginosa; Pseudomonas aeruginosa, strain PS-32, VIM-2, read-out: MIC): 16 µg/mL | MIC (P. aeruginosa; Pseudomonas aeruginosa, strain Paeβ-04, 100-fold ↑ PDC-2/30% OprD/5.6x ↑ABM, read-out: MIC): 32 µg/mL | MIC (P. aeruginosa; Pseudomonas aeruginosa, strain Paeβ-10, 67-fold ↑ PDC-2/0.1% OprD/5.7x↑ABM, read-out: MIC): 32 µg/mL | MIC (P. aeruginosa; Pseudomonas aeruginosa, strain Paeβ-15, 310-fold ↑ PDC-2/10% OprD/4.4x↑XYM, read-out: MIC): 64 µg/mL | MIC (P. aeruginosa; Pseudomonas aeruginosa, strain Paeβ-17, 62-fold ↑PDC-3/30% OprD/10.2x and 9.9x ↑XYM and CDJ, read-out: MIC): 64 µg/mL | MIC (P. aeruginosa; Pseudomonas aeruginosa, strain Paeβ-18, 600-fold ↑ PDC-3/<0.01% OprD/3.9x and 5.6x ↑ABM and XYM, read-out: MIC): ≥ 256 µg/mL | MIC (P. aeruginosa; Pseudomonas aeruginosa, strain Paeβ-21, 200-fold ↑ PDC-4/10% OprD/13.5x ↑XYM, read-out: MIC): 64 µg/mL | MIC (P. aeruginosa; Pseudomonas aeruginosa, strain Ps296, VIM-2, read-out: MIC): 64 µg/mL | MIC (S. marcescens; strain 134434, AmpC/SHV-12/TEM-1): 64 µg/mL | MIC (S. marcescens; strain 192476, AmpC/TEM-1/SHV-5): 128 µg/mL | MIC (S. marcescens; strain 192478, AmpC/SHV-12/TEM-1): 128 µg/mL | MIC (S. marcescens; strain 218073, AmpC/SHV-7/TEM-1): 64 µg/mL | MIC (S. paratyphi): 8 µg/mL | MIC (S. typhi): 64 µg/mL | MIC (M. morgannii): 2 µg/mL
